# Measurements reported in publication PMC13195669, “GPR3 Ligands Discovered through Combined Virtual and Conformational Biosensor-Based Screening” (Journal of the American Chemical Society, 2026).
# Test system: GPR3 mutant (bulky tryptophan residues in extracellular loop 2)
# Assay: GPR3 conformational biosensor with tryptophan insertions in extracellular loop 2
# Type: cell-based, human
# Conditions: wildtype vs mutant biosensor; transiently transfected HEK293A
# Description: To develop a hypothesis for the cause of the significant loss in efficacy from VH1 to 33, we computationally predicted the binding poses of both molecules in GPR3 (Figure a). […] In contrast, the cyclopropyl ring of 33 is still buried in the receptor’s transmembrane core. […] We also challenged this binding model of 33 with another GPR3 biosensor variant which harbors the T^3.37A point mutation in transmembrane helix 3. According to an alternative predicted pose of 33 obtained with Boltz-2 (c.f., SI – Materials and Methods section), this mutation should hamper 33 binding to GPR3.
# 5 Proposed binding poses of VH1 and 33. […]
# Cells expressing the conformational GPCR biosensors were grown for 24 h (stable cells) or 48 h (transiently transfected cells) in white 96-well plates and washed with 100 µl of HBSS. […] Three baseline BRET reads were recorded and averaged prior to the addition of serial dilutions of ligands or veh icle control and subsequent BRET reads. […] BRE T donor emission was quantified with a 470/80 nm monochromator. […] Experiments were carried out using a CLARIOstar plate reader.
# FRET- and BRET-based measurements of cAMP levels and Gs dissociation/reassociation Transfected cells grown in black 96-well plates were washed twice with 100 µl of HBSS 48 h after transfection and incubated with HBSS. […] FRET donor emission was quantified with a 480/10 nm filter. […]
row,Compound,effect of extracellular loop 2 tryptophan insertions on concentration-response
1,N=c1n(Cc2ccccc2)c2ccccc2n1CC1CC1 [compound 33],not affected by these modifications
2,N=c1n(Cc2ccccc2)c2ccccc2n1CC(O)COc1ccc(Cl)cc1 (centres unmarked) [compound 52],right-shifted
